What was measured:
[1] = test system: tissue Transglutaminase II mRNA; experiment: mRNA for TGase II in macrophages by RT-PCR densitometry; assay type: cell-based, mouse; details: 1 μM hydrocortisone, densitometry of RT-PCR products, FIG. 3
Method: (§1) The cells were washed with PBS, followed by addition of the extraction buffer provided with the kit (RNeasy RNA extraction kit). The lysed cells were scraped from the dish and collected in microtubes. Samples were either frozen at −70° C. before analysis or directly assessed following manufacturer protocol. Absorbance at 260 nm and 280 nm was measured and the integrity of RNA was evaluated by denaturing formaldehyde agarose gels stained with ethidium bromide.
The procedure used to transcribe the total RNA was described in detail previously (28). […]
(§2) A portion of the first strand cDNA reaction was used in PCR, which was carried out in 25 μl containing 16 mM Tris-HCl, pH 8.3, 50 mM KCl, 1.5 mM MgCl2, 0.01% gelatin, 200 μM of each dNTPs, 1 μM each sense and antisense oligonucleotides and 2.5 units of AmpliTaq DNA polymerase. […] Sizes were determined using Q X 174 DNA/Hae III markers. […] Densitometry was used for quantitative analysis of the ethidium bromide stained gels.
In an attempt to identify the mechanism of this inhibition, the level of mRNA was evaluated for TGase II in macrophages treated with 1 μM hydrocortisone.

[2] = test system: TGF-β1 activation; experiment: Macrophage activation assay (IC-21 macrophages, LPS, fetal fibroblast conditioned media, ELISA); assay type: cell-based, mouse
Method: Cultured macrophages were lifted from the dish with 3 ml of PBS. The PBS was balanced with 15 ml of RPMI-1640 containing 10% FBS. The cells were counted and then seeded in 100 mm plates at 1×10^6 cells/dish. When the cultured macrophages reached approximately 70% confluency (2-3 days) they were washed with PBS and RPMI-1640 medium containing 5% FBS and 10 ng/ml LPS was applied (FIG. 1). After 24 h of activation with LPS the cells were washed gently with PBS. At this point conditioned medium from confluent fetal dermal fibroblasts was collected and 5 ml was distributed into each dish containing macrophages. The cells were incubated for an additional 24 h, the media were collected, spun down at 600×g for 10 min and stored at 4° C. before TGF-β1 evaluation by ELISA. Each condition was done in duplicate. The cells, washed with PBS, were harvested for total RNA extraction.
Fetal dermal fibroblasts were seeded in 100 mm dishes at 1×10^6 cell/dish. The cells were grown to confluency (2-3 days). The cultures were washed with PBS and fresh medium, either DMEM supplemented with 10% FBS or AIM-V medium (a serum free medium) for serum-free conditions, was applied for 24 h (FIG. 1). The medium was collected and combined in order to obtain a homogenous pool of latent TGF-β1. The collection of the medium was done just prior to application in the macrophage assay.
(§3) Each measurement was performed in duplicates.

[3] = test system: TGF-β1 activation; experiment: TGF-β1 activation by HMB-2 melanoma cells (ELISA); assay type: cell-based, human
Method: as §3
(§4) It has been shown that cancer cells, such as human breast cancer, some melanoma cell lines and prostate adenocarcinoma cell lines, constitutively release biologically active TGF-β1 into the culture medium (24, 25, 29). Since the homotypic cell culture system would be of advantage due to its simplicity, an attempt was made to implement cancer cells as a method for TGF-β1 activation.

[4] = test system: TGF-β1 activation; experiment: BAEC treated with retinoic acid, TGF-β1 in conditioned media by ELISA; assay type: cell-based, bovine
Method: The procedures for preparation of conditioned media were described previously (22). Briefly, for the retinoid experiment, BAEC cells were grown to confluency in 35 mm dishes. The cultures were rinsed with PBS (Phosphate Buffered Saline), and incubated in 1 ml of serum-free DMEM containing 0.1% of BSA and retinoic acid (10 μM) or vehicle (0.5% ethanol). The incubation was carried out for 24 h. The medium was aspirated, the cells were washed with PBS and then incubated in 1 ml of DMEM/0.1% BSA for an additional 12 h to produce conditioned medium. Conditioned media were centrifuged and used in the ELISA assay for TGF-β1 evaluation.
Each measurement was performed in duplicates. […]

[5] = test system: TGF-β1 activation; experiment: Co-culture of BAEC and BASMC, TGF-β1 in conditioned media by ELISA; assay type: cell-based, bovine
Method: For co-culture experiments, BAECs and BASMCs were seeded separately in 35 mm dishes at a density of 40×10^4 cells in DMEM/10% CS (Calf Serum) or 3.2×10^5 BAECs and 0.8×10^5 BASMCs in the same 35-mm dishes. After cell attachment (approximately 2 h) the cells were rinsed with PBS and incubated in 1 ml of DMEM/0.1% BSA for 6 h to produce conditioned media. Conditioned Media were centrifuged and used in the ELISA assay.
as §3
Preliminary experiments were carried out with the aim to adopt the published co-culture system for screening anti-fibrotic agents.

[6] = test system: M6P/IGF-II receptors; experiment: M6P/IGF-II receptor levels within wounds treated with M6P; assay type: in vivo; details: 3 days post-wounding
[7] = test system: TGF-β receptor type I mRNA; experiment: TGF-β receptor type I mRNA in human neonatal fibroblasts by RT-PCR; assay type: cell-based; details: M6P, time course of treatment (24 and 48 h)
Method: (§5) Human neonatal fibroblasts were seeded in 100 mm dishes at 1×10^6 cells/dish. […] In addition, cells were treated with two concentrations of Mannose 1-Phosphate (M1P) (100 and 200 μM) for 24 and 48 h. […] Each treatment was run in duplicates and repetitive analyses were performed.
(§6) The procedure used to transcribe the total RNA was described in detail previously (28). Briefly, the reaction was carried out in a total volume of 25 μl containing 1× reverse transcriptase buffer (50 mM Tris-HCl, pH 8.3, 75 mM KCl, 3 mM MgCl2), 10 mM DTT (Dithiothreitol), 2.5 mM each of dNTPs (Deoxynucleotides), 100 μg/ml of acetylated BSA, 4 units of rRNasin (ribonuclease inhibitor), 200 units of SuperScript™ RNase H^−Reverse Transcriptase, 0.1 μg of oligo (dT)12-18 and 1 μg of total RNA. Incubation was carried out for 1 h at 42° C. and was terminated by the addition of an equal volume of cold water.
as §2, with “polymerase. Amplification was carried out for 35 cycles.” for “polymerase.”

[8] = test system: TGF-β1 activation; experiment: TGF-β1 activation by prostate adenocarcinoma cells (ELISA); assay type: cell-based, human
Method: as §3, §4

[9] = test system: TGF-β1 activation; experiment: TGF-β1 activation by Bowes melanoma cells (ELISA); assay type: cell-based, human
Method: as §3, §4

[10] = test system: M6P/IGF-II receptor mRNA; experiment: M6P/IGF-II receptor mRNA in human neonatal fibroblasts by RT-PCR; assay type: cell-based
Method: as §5, §6
(§7) A portion of the first strand cDNA reaction was used in PCR, which was carried out in 25 μl containing 16 mM Tris-HCl, pH 8.3, 50 mM KCl, 1.5 mM MgCl2, 0.01% gelatin, 200 μM of each dNTPs, 1 μM each sense and antisense oligonucleotides and 2.5 units of AmpliTaq DNA polymerase. Amplification was carried out for 35 cycles. Each cycle consisted of: denaturation 1 min at 95° C.; annealing at 55° C. (optimal for the pair of oligonucleotides used) for 2 min; and elongation at 72° C., 3 min. For the final cycle elongation was 7 min. Reaction products were separated by 2% agarose gel electrophoresis and were visualized by ethidium bromide staining. Sizes were determined using Q X 174 DNA/Hae III markers. Restriction digests were performed in order to confirm PCR product specificity. Densitometry was used for quantitative analysis of the ethidium bromide stained gels.

[11] = test system: TGF-β1 mRNA; experiment: TGF-β1 mRNA in human neonatal fibroblasts by RT-PCR; assay type: cell-based
Method: as §5, §6, §7

[12] = test system: TGF-β1 mRNA; experiment: mRNA for TGF-β1 in macrophages by Northern blot; assay type: cell-based, mouse; details: LPS alone or LPS with M6P or DCA, FIG. 2
Method: as §1
Northern blot analysis was carried out as described previously (27). Briefly, total RNA samples (5 μg) were diluted in formaldehyde-MOPS buffer and subjected to electrophoresis in a denaturing 1.2% Sea Kem GTG agarose gel along with the RNA size markers. RNA was transferred to a nitrocellulose membrane by capillary transfer. The blots were prehybridized for 3 h at 42° C. in a solution containing 10% dextran sulfate, 2×Denhardt's solution, 50% formamide, 5×SSPE (0.75 M Sodium chloride, 0.05 M sodium phosphate, 0.005 M ethylenediaminetetraacetic acid)/0.1% SDS, and 250 μg/ml of sheared salmon testis DNA. Hybridization solution was essentially the same except that ^32P dCTP-labeled DNA probe and 150 μg/ml of salmon testis DNA were included. The hybridization was carried out for 16 h at 42° C. […]

[13] = BAEC + RA (10 μM) + test agent 100 μM
[14] = BAEC + RA (10 μM), conditioned medium

Structure (SMILES): C[C@]12CCC(=O)C=C1CC[C@@H]1[C@@H]2[C@@H](O)C[C@@]2(C)[C@H]1CC[C@]2(O)C(=O)CO [Hydrocortisone, hydrocortisone]
- level of mRNA for TGase II, reduced to [1]: 37.5%
- active TGF-β1, % Control (STD) ([2]; 1 μM): 64.0 (0.4) %
- active TGF-β1, % Control (STD) ([2]; 1 μM, listed as hydrocortisone): 64.0%

Structure (SMILES): Cl.Cl.NCCCCN [Putrescine, putrescine-dihydrochloride]
- active TGF-β1, % Control (STD) ([2]; 100 μM): 80.6%

Structure (SMILES): O=C[C@@H](O)[C@@H](O)[C@H](O)[C@H](O)COP(=O)(O)O [M6P, D-mannose 6-phosphate]
- % ACTIVE TGF-β1 (STD) ([3]; HMB-2, M6P 100 μM, DCA 100 μM, antibody 1:1500 dil): 108.4%
- effect on TGF-β1 activation, in words ([3]; melanoma cells (HMB-2)): no effect
- inhibitory effect on TGF-β1 activation, in words ([4]; 100 μM, BAEC treated with RA): no significant inhibitory effects
- % Active [4, 13]: 8.1%
- Active TGF-β1 [4, 13]: 287 pg/mL
- Total TGF-β1 [4, 13]: 3544 pg/mL
- inhibition of TGF-β1 activation, in words ([5]; 100 μM): did not significantly inhibit
- % Active ([5]; Co-culture + M6P 100 μM): 7.5%
- Active TGF-β1 ([5]; Co-culture + M6P 100 μM): 58 pg/mL
- Total TGF-β1 ([5]; Co-culture + M6P 100 μM): 770 pg/mL
- levels of the M6P/IGF-II receptors within the wounds, in words [6]: downregulated
- level of TGF-β receptor type I mRNA, in words [7]: unchanged
- % ACTIVE TGF-β1 (STD) ([8]; Adenocarcinoma cells, M6P 100 μM, cystamine 100 μM, antibody 1:1500 dil): 91.8%
- effect on TGF-β1 activation, in words ([8]; prostate cancer cells): no effect
- % ACTIVE TGF-β1 (STD) ([9]; BOWES, M6P 100 μM, DCA 100 μM, antibody 1:1500 dil): 113.5%
- effect on TGF-β1 activation, in words ([9]; melanoma cells (Bowes)): no effect
- expression of mRNA for M6P/IGF-II receptor, in words ([10]; 1-100 μM, 24 h): not affected
- expression of mRNA for M6P/IGF-II receptor, in words ([10]; 50-200 μM, 48 h): decrease
- expression of TGF-β1 cDNA (RT-PCR) ([11]; M6P 1 μM, 24 h): 80.9
- expression of TGF-β1 cDNA (RT-PCR) ([11]; M6P 1 μM, 48 h): 86.3
- expression of TGF-β1 cDNA (RT-PCR) ([11]; M6P 10 μM, 24 h): 116.2
- expression of TGF-β1 cDNA (RT-PCR) ([11]; M6P 10 μM, 48 h): 78.8
- expression of TGF-β1 cDNA (RT-PCR) ([11]; M6P 50 μM, 24 h): 119.3
- expression of TGF-β1 cDNA (RT-PCR) ([11]; M6P 50 μM, 48 h): 75
- expression of TGF-β1 cDNA (RT-PCR) ([11]; M6P 100 μM, 24 h): 95.6
- expression of TGF-β1 cDNA (RT-PCR) ([11]; M6P 200 μM, 24 h): 62.5
- expression of TGF-β1 cDNA (RT-PCR) ([11]; M6P 200 μM, 48 h): 28.8
- levels of mRNA for TGF-β1, in words [12]: remained the same

Structure (SMILES): CC1=C(/C=C/C(C)=C/C=C/C(C)=C/C(=O)O)C(C)(C)CCC1 [RA, all-trans retinoic acid]
- % Active ([4]; BAEC + RA (10 μM)): 10.3%
- Active TGF-β1 [4, 14]: 276 pg/mL
- Total TGF-β1 [4, 14]: 2667 pg/mL
